pIC50: −log10 of the molar value.
What was measured:
[1] = Cytotoxicity assay in human neuroblastoma cell line SH-SY-5Y; assay type: cell-based; settings: SH-SY-5Y neuroblastoma cells, 24 hours incubation, Alamar Blue, concentration inducing 50% of mortality
Experimental: Cytotoxicity Assay in Human Neuroblastoma Cell Line SH-SY-5Y
At time zero, the cells were seeded at 1.10^4/cm^2 in 96 well plates in DMEM growth medium+10% heat inactivated FBS+2 mM 1-Glutamine+100 U/mL-100 μg/mL Penicillin/Streptomycin.
After 72 hours at subconfluent phase of growth, the medium was removed and cells were incubated for 24 hours at 37° C. in 180 μl of neurobasal medium+2 mM 1-Glutamine (Life Technologies) with or without test compounds (20 μl, at least 5 concentrations in triplicate).
At the end of incubation, 20 μl of Alamar Blue dye (AlamarBlue™ Assay Kit, Promega) were directly added to the cell medium.
Four hours after, the cytotoxicity was assessed by measuring the fluorescence at 530 nm excitation and 595 nm emission using Tecan Spectrafluor plate reader.
Before and at the end of the treatment, the cultures were monitored microscopically by an Olympus IX70 inverted light microscope matched to an Image Analyzer (Image Pro Plus, 5.1) to evaluate the cellular morphology.
Results are expressed in Table 1 as concentration inducing 50% of mortality.

CYP2D6 = target: T1, CYP2D6 (Homo sapiens, UniProt P10635); experiment: Cytochrome P450 assay (Gentest Kit), CYP2D6; assay type: in vitro ADME; settings: human recombinant isoenzyme
T1 construct: purchased Gentest
Experimental: (§1) Inhibition of the five most important Cytochrome P450 isoforms (CYP1A2, CYP2C9, CYP2C19, CYP2D6 and CYP3A4), involved in drug metabolism, was measured using specific substrates that become fluorescent upon CYP metabolism (Gentest Kit assay).
(§2) Compounds were tested in a 96-well plate containing incubation/NADPH regenerating buffer. Specific human recombinant isoenzymes and substrates were added and incubated at 37° C. for 15 minutes for CYP1A2/CEC, […], 45 minutes for CYP2C9/MFC and 30 minutes for the others CYP450.
3[2(N,N-diethyl-N-mwthylamino) ethyl]-7-methoxy-4-methylcoumarin (CYP2D6)

CYP2C19 = target: T2, CYP2C19 (Homo sapiens, UniProt P33261); experiment: Cytochrome P450 assay (Gentest Kit), CYP2C19; assay type: in vitro ADME; settings: human recombinant isoenzyme
T2 construct: purchased Gentest
Experimental: as §1, §2
(§3) The specific substrates were the following: 3-cyano-7-ethoxycoumarin (CYP2C19 and CYP1A2),

CYP2C9 = target: T3, CYP2C9 (Homo sapiens, UniProt P11712); experiment: Cytochrome P450 assay (Gentest Kit), CYP2C9; assay type: in vitro ADME; settings: human recombinant isoenzyme
T3 construct: purchased Gentest
Experimental: as §1, §2
7-methoxy-4-trifluoromethylcoumarin (CYP2C9),

CYP1A2 = target: T4, CYP1A2 (Homo sapiens, UniProt P05177); experiment: Cytochrome P450 assay (Gentest Kit), CYP1A2; assay type: in vitro ADME; settings: human recombinant isoenzyme
T4 construct: purchased Gentest
T4 sequence (P05177 1-516): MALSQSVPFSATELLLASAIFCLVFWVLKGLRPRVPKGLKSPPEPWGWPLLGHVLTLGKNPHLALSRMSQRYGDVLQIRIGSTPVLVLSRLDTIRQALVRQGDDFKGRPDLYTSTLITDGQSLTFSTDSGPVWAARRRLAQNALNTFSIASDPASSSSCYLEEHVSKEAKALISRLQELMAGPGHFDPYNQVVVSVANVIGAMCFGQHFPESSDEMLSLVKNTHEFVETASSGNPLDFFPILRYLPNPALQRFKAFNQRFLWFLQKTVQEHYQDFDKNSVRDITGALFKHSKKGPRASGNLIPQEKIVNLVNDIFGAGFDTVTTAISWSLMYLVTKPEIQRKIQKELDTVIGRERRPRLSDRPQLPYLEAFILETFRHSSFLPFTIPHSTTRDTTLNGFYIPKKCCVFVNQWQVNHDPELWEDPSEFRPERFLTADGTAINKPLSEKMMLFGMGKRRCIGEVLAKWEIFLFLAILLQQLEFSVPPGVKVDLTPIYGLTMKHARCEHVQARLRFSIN
Experimental: as §1, §2, §3

mice [2] = experiment: Maximal Electroshock Test (MES) in mice; assay type: in vivo
Experimental: Maximal Electroshock Test (MES) in Mice
The maximal electroshock test (MES) is used commonly in the screening of anti-epileptic drugs in rodent models.
Animals and Apparatus: Male CD1 mice weighing 25 g were used. […] The stimulus was delivered intra-aurally through clip electrodes in mice (0.7 seconds of a 40 mA shock, with a pulse train of 80 Hz having a pulse duration of 0.4 ms). The acute effect of compounds administered intraperitoneally or orally 15-60 minutes before MES induction were examined and compared with a vehicle control group. Ten mice were studied per group. Complete suppression of the hindlimb tonic extensor component of seizures was taken as evidence of anticonvulsant activity.
The compounds of the invention were administered orally or intraperitoneally at the doses of 3-30 mg/kg.
The results are expressed in Tables 3 and 4 as % of protection.

HERG channel = HERG channel (Homo sapiens, UniProt Q12809); experiment: HERG current in transfected CHO cell lines
Experimental: The inhibition of HERG current was tested in CHO cells stably expressing recombinant HERG channel.
To evaluate the effect of the test compounds on HERG currents, cells were clamped at −80 Mv, depolarised to 0 mV for 5 seconds allowing activation of HERG current and repolarised to −50 mV during 5 seconds allowing HERG tail current to deactivate. This procedure was repeated at a frequency of 0.06 Hz. The current amplitude upon repolarisation (HERG tail current) was measured before and after exposure to the test compound.
Inhibition of current was calculated as the difference between the amplitude of HERG tail current amplitude measured at the end of external bath perfusion period and HERG tail current measured at the end of test compound perfusion period (when steady-state effect is reached) divided by control HERG tail current.
Drug concentration-inhibition curves were obtained by plotting tonic blocks versus drug concentrations. Dose-response curves were fitted to the tonic block data, according to the logistic equation: y=A2+(A1−A2)/[1+(x/IC50)^p].

mice [3] = experiment: Amphetamine plus chlordiazepoxide-induced hyperlocomotion in mice; assay type: in vivo
Experimental: FIG. 1 provides total locomotor activity over 30 min. Mice were treated with ralfinamide (10; 30 and 60 mg/kg, po); or saline and returned to their home cage. After 30 min they received an injection of Amph (2.5 mg/kg; ip); Amph/CDP mixture (2.5 and 3.125 mg/kg; ip) or saline immediately prior to be placed in the test cage. Locomotor activity was recorded for 30 min.
Amphetamine Plus Chlordiazepoxide-Induced Hyperlocomotion in Mice
The anti mania activity, predictive of efficacy in bipolar disorders, was measured using the “Amphetamine plus chlordiazepoxide-induced hyperlocomotion in mice” model according to the following procedure.
In this model, mice are treated with a mixture of d-amphetamine plus an anxiolytic dose of the benzodiazepine, chlordiazepoxide (Rushton R and Steinberg H. Nature 1966; 211: 1312-3; R. Arban, et al. Behavioural Brain Research, 158: 123-132). The model has been claimed to mimic some aspects of mania in bipolar disorder. Importantly, the hyperactivity induced by the mixture of d-amphetamine and chlordiazepoxide could be prevented by prior administration of the established mood stabilizer, lithium, as well as other mood stabilizers drugs (e.g. magnesium valproate and carbamazepine). Therefore, this model has face and predictive validity as a model of bipolar disorders and represents a valuable tool to determine, if a test compound could be a potential mood stabilizer drug candidate.
D-amphetamine (Amph) (2.5 mg/kg ip) plus chlordiazepoxide hydrochloride (CDP) (3 mg/kg ip) were administered to male Albino Swiss mice (25-32 g) in a volume of 10 ml/kg. The locomotor activity was recorded using an automated Activity Cage LE 881 (Panlab) (45×45 cm). This system detects animal movements from 2 levels of 4 side infrared sensors placed all around the square cage. Mice were pretreated with the test compound (0.5-60 mg/kg po) and 30 min later, with Amph (2.5 mg/kg ip) or Amph jointly with CDP (3 mg/kg ip) and were placed individually in the motor activity cages. The locomotor activity was measured in terms of total distance travelled (cm) over a period of 30 min. Each group consisted of 8-10 mice.
Statistical analysis: a two-way analysis of variance (ANOVA) with Amph treatment factor and drug treatment factor was performed. Bonferroni's procedure was used for multiple comparison post hoc analysis.
D-amphetamine-chlordiazepoxide administration induced a significant increase in locomotor activity.

CYP3A4 = target: T5, CYP3A4 (Homo sapiens, UniProt P08684); experiment: Cytochrome P450 assay (Gentest Kit), CYP3A4; assay type: in vitro ADME; settings: human recombinant isoenzyme, Table 1
T5 construct: purchased Gentest
Experimental: as §1, §2
benzylphenylcoumarin (CYP3A4)

T3 sequence (P11712 whole entry): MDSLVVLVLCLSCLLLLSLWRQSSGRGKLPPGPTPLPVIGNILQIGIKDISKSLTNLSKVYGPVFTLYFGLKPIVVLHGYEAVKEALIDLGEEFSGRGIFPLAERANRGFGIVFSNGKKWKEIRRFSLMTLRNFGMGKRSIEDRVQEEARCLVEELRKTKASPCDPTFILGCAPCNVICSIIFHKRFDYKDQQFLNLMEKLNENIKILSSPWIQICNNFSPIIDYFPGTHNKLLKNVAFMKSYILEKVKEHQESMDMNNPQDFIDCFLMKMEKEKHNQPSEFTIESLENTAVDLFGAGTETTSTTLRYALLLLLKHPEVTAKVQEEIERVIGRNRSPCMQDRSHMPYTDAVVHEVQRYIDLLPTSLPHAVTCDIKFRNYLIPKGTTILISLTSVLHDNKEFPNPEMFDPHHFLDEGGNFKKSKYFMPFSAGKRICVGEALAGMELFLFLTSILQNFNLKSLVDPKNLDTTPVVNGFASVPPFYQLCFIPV
T2 sequence (P33261 whole entry): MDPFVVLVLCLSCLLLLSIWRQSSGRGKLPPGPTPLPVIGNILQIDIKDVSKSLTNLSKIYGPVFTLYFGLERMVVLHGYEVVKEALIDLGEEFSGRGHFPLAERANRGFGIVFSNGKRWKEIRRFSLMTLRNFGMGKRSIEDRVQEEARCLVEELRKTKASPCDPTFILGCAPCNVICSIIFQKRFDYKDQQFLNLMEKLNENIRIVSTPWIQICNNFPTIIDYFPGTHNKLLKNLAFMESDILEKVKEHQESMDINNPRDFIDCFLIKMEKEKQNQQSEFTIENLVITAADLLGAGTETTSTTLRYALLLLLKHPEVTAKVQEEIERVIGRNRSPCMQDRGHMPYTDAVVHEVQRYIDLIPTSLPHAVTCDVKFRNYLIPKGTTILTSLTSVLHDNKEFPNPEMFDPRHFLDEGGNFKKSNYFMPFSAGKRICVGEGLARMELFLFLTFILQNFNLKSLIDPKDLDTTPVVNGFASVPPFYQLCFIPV
T1 sequence (P10635 whole entry): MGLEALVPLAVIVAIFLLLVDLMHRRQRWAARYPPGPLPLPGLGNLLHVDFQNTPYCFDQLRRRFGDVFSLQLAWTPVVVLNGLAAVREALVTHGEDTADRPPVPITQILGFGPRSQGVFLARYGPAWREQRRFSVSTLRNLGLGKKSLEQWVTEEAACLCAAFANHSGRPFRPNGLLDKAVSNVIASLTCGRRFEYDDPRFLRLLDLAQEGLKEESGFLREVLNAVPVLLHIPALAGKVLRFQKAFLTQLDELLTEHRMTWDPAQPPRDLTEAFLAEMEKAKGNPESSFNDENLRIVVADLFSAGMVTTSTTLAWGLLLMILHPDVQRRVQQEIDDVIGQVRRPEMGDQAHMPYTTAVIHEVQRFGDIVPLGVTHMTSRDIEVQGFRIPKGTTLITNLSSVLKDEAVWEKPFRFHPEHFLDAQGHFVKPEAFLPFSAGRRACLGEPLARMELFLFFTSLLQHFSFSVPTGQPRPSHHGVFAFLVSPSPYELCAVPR
Chain of HERG channel (Q12809 whole entry): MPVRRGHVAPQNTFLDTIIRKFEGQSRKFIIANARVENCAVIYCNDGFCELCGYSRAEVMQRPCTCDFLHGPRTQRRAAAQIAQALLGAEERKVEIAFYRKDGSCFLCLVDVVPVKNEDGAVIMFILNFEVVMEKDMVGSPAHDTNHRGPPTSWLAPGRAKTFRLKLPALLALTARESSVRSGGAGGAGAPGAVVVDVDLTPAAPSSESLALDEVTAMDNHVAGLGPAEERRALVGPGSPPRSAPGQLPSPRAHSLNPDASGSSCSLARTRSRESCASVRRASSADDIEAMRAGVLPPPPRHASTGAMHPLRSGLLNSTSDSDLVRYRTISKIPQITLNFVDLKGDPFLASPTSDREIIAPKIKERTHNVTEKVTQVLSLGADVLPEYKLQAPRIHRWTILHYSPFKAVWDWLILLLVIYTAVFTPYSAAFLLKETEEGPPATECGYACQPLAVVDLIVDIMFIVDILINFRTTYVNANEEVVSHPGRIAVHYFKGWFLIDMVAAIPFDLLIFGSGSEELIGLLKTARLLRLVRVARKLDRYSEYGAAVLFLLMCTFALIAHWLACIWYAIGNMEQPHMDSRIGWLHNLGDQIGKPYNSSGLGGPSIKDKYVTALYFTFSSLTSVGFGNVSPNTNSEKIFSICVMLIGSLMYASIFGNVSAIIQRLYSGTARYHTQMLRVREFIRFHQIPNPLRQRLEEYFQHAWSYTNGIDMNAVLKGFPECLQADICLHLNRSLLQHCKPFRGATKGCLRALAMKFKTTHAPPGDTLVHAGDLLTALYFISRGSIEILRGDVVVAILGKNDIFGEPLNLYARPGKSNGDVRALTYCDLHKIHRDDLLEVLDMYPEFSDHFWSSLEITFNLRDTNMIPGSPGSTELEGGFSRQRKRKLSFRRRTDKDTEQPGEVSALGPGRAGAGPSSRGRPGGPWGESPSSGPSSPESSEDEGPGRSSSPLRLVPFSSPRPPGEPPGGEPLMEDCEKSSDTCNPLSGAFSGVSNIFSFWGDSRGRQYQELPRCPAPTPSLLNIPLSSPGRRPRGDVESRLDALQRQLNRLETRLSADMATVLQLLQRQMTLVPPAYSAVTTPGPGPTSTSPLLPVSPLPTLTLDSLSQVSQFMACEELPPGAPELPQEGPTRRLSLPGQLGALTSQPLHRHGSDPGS
T5 sequence (P08684 whole entry): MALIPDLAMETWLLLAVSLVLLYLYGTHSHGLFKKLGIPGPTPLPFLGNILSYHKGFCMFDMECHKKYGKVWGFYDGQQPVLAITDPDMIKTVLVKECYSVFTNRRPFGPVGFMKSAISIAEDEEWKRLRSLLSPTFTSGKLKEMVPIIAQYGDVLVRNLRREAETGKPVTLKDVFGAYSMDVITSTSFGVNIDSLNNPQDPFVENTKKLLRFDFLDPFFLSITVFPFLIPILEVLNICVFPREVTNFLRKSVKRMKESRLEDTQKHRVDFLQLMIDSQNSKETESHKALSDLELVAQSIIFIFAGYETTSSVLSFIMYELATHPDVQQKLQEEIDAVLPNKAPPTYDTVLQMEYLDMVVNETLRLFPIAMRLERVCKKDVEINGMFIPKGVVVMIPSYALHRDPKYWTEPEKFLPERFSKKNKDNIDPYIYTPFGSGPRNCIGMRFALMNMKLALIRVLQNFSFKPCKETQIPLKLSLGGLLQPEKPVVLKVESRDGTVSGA

Row | Structure (SMILES) | IC50 at 24 h [1] [µM] | pIC50 (CYP2D6) | pIC50 (CYP2C19) | pIC50 (CYP2C9) | pIC50 (CYP1A2) | MES Protection % (mice [2]; mice, 10 mg/kg p.o.) [%] | MES (head blank; protection) (mice [2]; mice, 20 mg/kg p.o.) [%] | pIC50 (HERG channel) | MES % protection (mice [2]; mice, 3 mg/kg ip) [%] | MES % protection (mice [2]; mice, 10 mg/kg ip) [%] | MES % protection (mice [2]; mice, 30 mg/kg ip) [%] | pIC50 (CYP3A4) | other results
1 | CS(=O)(=O)O.C[C@H](NCc1ccc(OCc2ccccc2F)cc1)C(N)=O [Ralfinamide methanesulfonate, (S)-2-[4-(2-fluorobenzyloxy)benzylamino]propanamide methanesulfonate] | > 300 | < 4.40 | < 4.40 | < 4.40 | < 4.40 | 60 | 90 | 4.74 | – | – | – | – | –
2 | CS(=O)(=O)O.C[C@H](NCc1ccc(OCc2cccc(F)c2)cc1)C(N)=O [Safinamide methanesulfonate, (S)-2-[4-(3-fluorobenzyloxy)benzylamino]propanamide methanesulfonate] | 248 | < 4.40 | 4.62 | < 4.40 | < 4.40 | – | – | 4.57 | 50 | 100 | 100 | – | –
3 | C[C@H](NCc1ccc(OCc2ccccc2F)cc1)C(N)=O [ralfinamide, (S)-2-[4-(2-fluorobenzyloxy)-benzylamino]propanamide] | – | – | – | – | – | – | – | – | – | – | – | – | total locomotor activity over 30 min, Bonferroni versus Amph/CDP mixture (mice [3]; 30 mg/kg po): statistical difference; total locomotor activity over 30 min, Bonferroni versus Amph alone (mice [3]; 60 mg/kg po): statistical difference; total locomotor activity over 30 min, Bonferroni versus Amph/CDP mixture (mice [3]; 60 mg/kg po): statistical difference; hyperactivity induced by Amph/CDP mixture (locomotor activity) (mice [3]; orally administered, 30 min before Amph/CDP ip): significantly decreasing the hyperactivity
4 | C[C@H](NCc1ccc(OCc2cccc(F)c2)c(Cc2cccc(F)c2)c1)C(N)=O [Impurity IIc, (S)-2-[3-(3-fluorobenzyl)-4-(3-fluorobenzyloxy)-benzylamino]propanamide methanesulfonate] | 6.7 | 6.11 | 6.38 | 5.14 | < 4.40 | – | – | 5.92 | 0 | 0 | 0 | 7.30 | MES dead/live (mice [2]; mice, 3 mg/kg ip): 5/10; MES dead/live (mice [2]; mice, 10 mg/kg ip): 4/10; MES dead/live (mice [2]; mice, 30 mg/kg ip): 4/10; pharmacological activity, i.e. protection from convulsions, in MES test (mice [2]; mice, ip, from 3 mg/kg): without any pharmacological activity; mortality in the mice MES test (mice [2]; starting from 3 mg/kg ip): increases
5 | C[C@H](NCc1ccc(OCc2ccccc2F)c(Cc2ccccc2F)c1)C(N)=O [Impurity IId, (S)-2-[3-(2-fluorobenzyl)-4-(2-fluorobenzyloxy)-benzylamino]propanamide methanesulfonate] | 15 | 6.04 | 5.72 | 5.10 | < 4.40 | 0 | 0 | 5.58 | – | – | – | 7.30 | MES dead/live (mice [2]; mice, 10 mg/kg p.o.): 0/10; MES dead/live (mice [2]; mice, 20 mg/kg p.o.): 0/10; protection from convulsions in MES test (mice [2]; mice, p.o. at 10 and 20 mg/kg): doesn't protect
